Laboratory results taken from the NIST ThermoML archive (doi:10.1021/je800150h).

Test: mn = molality of the nth substance listed, in mol/kg
Conditions: 101 kPa, Liquid; for electrical conductivity: CyberScan CON500 conductivity meter

[Cl-].[Li+] [lithium chloride] + CCO
Conditions	electrical conductivity [S/m]	mass density [kg/m3]	viscosity [mPa·s]
268.1 K, m1 = 0.196	0.117	810.9	2.208
268.1 K, m1 = 0.391	0.197	817.9	2.546
268.1 K, m1 = 0.782	0.269	828.4	3.283
268.1 K, m1 = 1.173	0.3	838.1	4.167
268.1 K, m1 = 1.76	0.305	854.5	5.819
268.1 K, m1 = 2.347	0.276	869.4	9.082
268.1 K, m1 = 3.129	0.222	887.7	14.96
268.1 K, m1 = 3.911	0.162	907.8	25.44
273.1 K, m1 = 0.196	0.13	805.1	2.043
273.1 K, m1 = 0.391	0.221	810.6	2.313
273.1 K, m1 = 0.782	0.3	821.3	2.943
273.1 K, m1 = 1.173	0.335	832.5	3.722
273.1 K, m1 = 1.76	0.343	847	5.158
273.1 K, m1 = 2.347	0.315	863.1	7.821
273.1 K, m1 = 3.129	0.258	882.4	12.71
273.1 K, m1 = 3.911	0.198	901.1	21.16
278.1 K, m1 = 0.196	0.144	803.2	1.863
278.1 K, m1 = 0.391	0.245	810.3	2.099
278.1 K, m1 = 0.782	0.336	821.5	2.638
278.1 K, m1 = 1.173	0.383	834.1	3.323
278.1 K, m1 = 1.76	0.394	845.5	4.57
278.1 K, m1 = 2.347	0.362	864.5	6.735
278.1 K, m1 = 3.129	0.3	883.6	10.78
278.1 K, m1 = 3.911	0.238	902.1	17.62
283.1 K, m1 = 0.196	0.158	796.1	1.695
283.1 K, m1 = 0.391	0.27	800.9	1.908
283.1 K, m1 = 0.782	0.37	812.2	2.366
283.1 K, m1 = 1.173	0.441	823.4	2.959
283.1 K, m1 = 1.76	0.445	837.4	4.045
283.1 K, m1 = 2.347	0.417	854.2	5.802
283.1 K, m1 = 3.129	0.348	875.7	9.203
283.1 K, m1 = 3.911	0.276	891.8	14.68
288.15 K, m1 = 0.196	0.172	789.7	1.495
288.15 K, m1 = 0.391	0.295	795.9	1.715
288.15 K, m1 = 0.782	0.415	807.5	2.1
288.15 K, m1 = 1.173	0.477	817.5	2.603
288.15 K, m1 = 1.76	0.505	831.6	3.546
288.15 K, m1 = 2.347	0.472	849.1	4.988
288.15 K, m1 = 3.129	0.396	868.4	7.807
288.15 K, m1 = 3.911	0.322	886.9	12.34
293.15 K, m1 = 0.196	0.188	786	1.357
293.15 K, m1 = 0.391	0.325	791.9	1.524
293.15 K, m1 = 0.782	0.459	803.3	1.869
293.15 K, m1 = 1.173	0.533	813.6	2.307
293.15 K, m1 = 1.76	0.565	828.8	3.124
293.15 K, m1 = 2.347	0.529	845.4	4.395
293.15 K, m1 = 3.129	0.45	864.7	6.784
293.15 K, m1 = 3.911	0.367	883.4	10.56
298.15 K, m1 = 0.196	0.231	782.4	1.218
298.15 K, m1 = 0.391	0.354	788.3	1.412
298.15 K, m1 = 0.782	0.506	799.4	1.677
298.15 K, m1 = 1.173	0.589	810.3	2.057
298.15 K, m1 = 1.76	0.629	823.8	2.767
298.15 K, m1 = 2.347	0.6	842.3	3.869
298.15 K, m1 = 3.129	0.514	861.9	5.908
298.15 K, m1 = 3.911	0.427	880.5	9.071
303.15 K, m1 = 0.196	0.25	776.5	1.089
303.15 K, m1 = 0.391	0.384	782.5	1.306
303.15 K, m1 = 0.782	0.554	794.7	1.527
303.15 K, m1 = 1.173	0.649	804.8	1.846
303.15 K, m1 = 1.76	0.697	819.5	2.469
303.15 K, m1 = 2.347	0.67	837.1	3.436
303.15 K, m1 = 3.129	0.575	856.7	5.171
303.15 K, m1 = 3.911	0.487	875.4	7.924
308.15 K, m1 = 0.196	0.27	773.8	1.006
308.15 K, m1 = 0.391	0.42	779.7	1.129
308.15 K, m1 = 0.782	0.605	791.2	1.369
308.15 K, m1 = 1.173	0.711	802.3	1.671
308.15 K, m1 = 1.76	0.772	816.6	2.223
308.15 K, m1 = 2.347	0.746	835.6	3.077
308.15 K, m1 = 3.129	0.644	854.7	4.578
308.15 K, m1 = 3.911	0.551	873.6	6.884
313.15 K, m1 = 0.196	0.289	773	0.928
313.15 K, m1 = 0.391	0.447	779	1.046
313.15 K, m1 = 0.782	0.652	790.7	1.267
313.15 K, m1 = 1.173	0.773	801.9	1.524
313.15 K, m1 = 1.76	0.852	815.8	2.01
313.15 K, m1 = 2.347	0.822	835.2	2.762
313.15 K, m1 = 3.129	0.712	854.7	4.089
313.15 K, m1 = 3.911	0.624	873.7	6.076
318.15 K, m1 = 0.196	0.309	772.2	0.866
318.15 K, m1 = 0.391	0.48	778.6	0.968
318.15 K, m1 = 0.782	0.708	790.9	1.164
318.15 K, m1 = 1.173	0.843	801.8	1.414
318.15 K, m1 = 1.76	0.931	816.8	1.842
318.15 K, m1 = 2.347	0.91	834.9	2.538
318.15 K, m1 = 3.129	0.792	853.9	3.735
318.15 K, m1 = 3.911	0.697	874	5.603
323.15 K, m1 = 0.196	0.327	768.7	0.807
323.15 K, m1 = 0.391	0.512	774.3	0.884
323.15 K, m1 = 0.782	0.762	786.1	1.07
323.15 K, m1 = 1.173	0.911	796.6	1.285
323.15 K, m1 = 1.76	1.02	811	1.677
323.15 K, m1 = 2.347	0.998	830.4	2.335
323.15 K, m1 = 3.129	0.875	851.3	3.437
323.15 K, m1 = 3.911	0.783	869.4	5.009
